What all share (assay): in-line probing
For experiment [1], the system named is 95 Dsu (RNA, riboswitch) GGAAACUCUUCCCUGUCACCGGAUAGGGAGCCAAGAGGGUUUAUUCCUGCUGCAGGUAAUAUGGCGAAAACCAUUGAAAGGCAGGAAUAAAUCCU
The settings on record: 100 mM KCl, 20 mM MgCl2; 50 mM Tris-HCl pH 8.3 (23 °C), ~48 h; highest concentration 10 mM.

The test system of experiment [2] is 105 Mja (RNA, riboswitch) GGAACACCGCUUCUGUCACCGGACAGGAGAAAUGGGGUGUCUGGGAGUUGUCGUAGGUACGGUAUGGUUGCAUGCUAUAAGACAAUUCCUGGGCACCCCUGUUUU
The settings on record: 100 mM KCl, 20 mM MgCl2; 50 mM Tris-HCl pH 8.3 (23 °C), ~48 h; highest concentration 10 mM.

For experiment [3], the system named is 81 Csp (RNA, riboswitch) GGAAUGCUUCCUCCGCCACCGGGCGGAGGGUGAAAAGCGUCCACGGUCUCCCGUAGGUACGGCGCGCUCUGCGCGUUACAA
The settings on record: 100 mM KCl, 20 mM MgCl2; 50 mM Tris-HCl pH 8.3 (23 °C), ~48 h; weaker than 95 Csp.

Experiment [4] concerns 95 Csp M2 (RNA, riboswitch) GGAAUGCUUCCUCCGCCACCGGGCGGAGGGUGAAAAGCGUCCACGGUCUCCCGUAGGAACGGCGCGCUCUGCGCGUUACAAGGGAGCCGCGGGCG
The settings on record: 100 mM KCl, 20 mM MgCl2; 50 mM Tris-HCl pH 8.3 (23 °C), ~48 h; highest concentration 10 mM; modulation almost eliminated.

Experiment [5] concerns 95 Csp (RNA, riboswitch) GGAAUGCUUCCUCCGCCACCGGGCGGAGGGUGAAAAGCGUCCACGGUCUCCCGUAGGUACGGCGCGCUCUGCGCGUUACAAGGGAGCCGCGGGCG
The settings on record: 100 mM KCl, 20 mM MgCl2, 50 mM Tris-HCl pH 8.3 (23 °C), ~48 h.

[6] abbreviates: highest concentration not stated.
Where [7] appears, read: weaker than guanidine, data not shown.

Structures are written as SMILES.

In the case of `N=C(N)N`, the binding result in experiment [1] is given as “no”; in experiment [2], “no”; in experiment [3], “weak”; in experiment [4] it was “weak”; in experiment [5] (0.61 µM-20 mM, no saturation, modulation above 1 mM), “weak”.
Take `N=C(N)NCCC[C@H](N)C(=O)O`: the binding entry in experiment [5] (setting [6]) was “no”.
As for `CNC(=N)N`, in experiment [5] (setting [7]), the binding entry is “weak”.
On the same count and under the same terms, as for `N=C(N)NO`, the entry is “weak”.
In the case of `N=C(N)NCCCCN`, the binding result in experiment [5] (setting [6]) was “no”.
Still for that read-out and setting: as for `N=C(N)NOCC[C@H](N)C(=O)O`, the entry is “no”.

(Values after article PMC9788692 (2022).)
